Measured values as given in US12655116B2, “Substituted isophthalic acid diamides” (Bayer Aktiengesellschaft, priority 2020, dated 2026).

Tests used:
ABUTH [1] = assay: Pre-emergence herbicidal action against ABUTH; assay type: in vivo, Abutilon theophrasti; conditions: Abutilon theophrasti, 504 h; for pest or weed control at 80 g/ha: scored visually after 3 weeks vs untreated controls (100% = plants have died, 0% = like control plants)
Summary of the method: (§1)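 Greenhouse pots of sandy loam held seeds covered with soil, onto which the compound was applied before emergence. An aqueous suspension or emulsion of WP or EC was used at 600 to 800 l/ha with 0.2% wetting agent. Percent damage was judged visually at 3 weeks.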

ALOMY [2] = assay: Pre-emergence herbicidal action against ALOMY; assay type: in vivo, Alopecurus myosuroides; conditions: Alopecurus myosuroides, 504 h, pre-emergence
Summary of the method: as §1

AMARE [3] = assay: Pre-emergence herbicidal action against AMARE; assay type: in vivo, Amaranthus retroflexus; conditions: Amaranthus retroflexus, 504 h, 100% = plants have died, 0% = like control plants
Summary of the method: as §1

AVEFA [4] = assay: Pre-emergence herbicidal action against AVEFA; assay type: in vivo, Avena fatua; conditions: Avena fatua, 504 h, pre-emergence
Summary of the method: as §1

ECHCG [5] = assay: Pre-emergence herbicidal action against ECHCG; assay type: in vivo, Echinochloa crus-galli; conditions: Echinochloa crus-galli, 504 h
Summary of the method: as §1

HORMU [6] = assay: Pre-emergence herbicidal action against HORMU; assay type: in vivo, Hordeum murinum; conditions: Hordeum murinum, 504 h, pre-emergence
Summary of the method: as §1

MATIN [7] = assay: Pre-emergence herbicidal action against MATIN; assay type: in vivo, Matricaria inodora; conditions: Tripleurospermum inodorum, 504 h; for pest or weed control at 80 g/ha: dosage 80 g/ha
Summary of the method: as §1

PHBPU [8] = assay: Pre-emergence herbicidal action against PHBPU; assay type: in vivo, Pharbitis purpurea; conditions: Ipomoea purpurea, 504 h, dosage 80 g/ha
Summary of the method: as §1

POLCO = assay: Pre-emergence herbicidal action against POLCO; assay type: in vivo, Polygonum convolvulus; conditions: Fallopia convolvulus, 504 h, dosage 80 g/ha
Summary of the method: as §1

SETVI [9] = assay: Pre-emergence herbicidal action against SETVI; assay type: in vivo, Setaria viridis; conditions: Setaria viridis, 504 h; for pest or weed control at 80 g/ha: dosage 80 g/ha
Summary of the method: as §1

STEME [10] = assay: Pre-emergence herbicidal action against STEME; assay type: in vivo, Stellaria media; conditions: Stellaria media, 504 h; for pest or weed control at 80 g/ha: dosage 80 g/ha
Summary of the method: as §1

VIOTR [11] = assay: Pre-emergence herbicidal action against VIOTR; assay type: in vivo, Viola tricolor; conditions: Viola tricolor, 504 h; for pest or weed control at 80 g/ha: dosage 80 g/ha
Summary of the method: as §1

DIGSA [12] = assay: Pre-emergence herbicidal action against DIGSA; assay type: in vivo, Digitaria sanguinalis; conditions: Digitaria sanguinalis, 504 h; for pest or weed control at 80 g/ha: dosage 80 g/ha
Summary of the method: as §1

ABUTH [13] = assay: Post-emergence herbicidal action against ABUTH; assay type: in vivo, Abutilon theophrasti; conditions: Abutilon theophrasti, 504 h, visual assessment about 3 weeks after treatment vs untreated controls; for pest or weed control at 20 g/ha: dosage 20 g/ha
Summary of the method: (§2)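 A WP or EC formulation diluted in water with 0.2% wetting agent was sprayed at 600 to 800 l/ha onto one-leaf-stage plants grown in sandy loam. About 3 weeks later, action was rated visually in percent, 100% being dead plants.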

ALOMY [14] = assay: Post-emergence herbicidal action against ALOMY; assay type: in vivo, Alopecurus myosuroides; conditions: Alopecurus myosuroides, 504 h, visual assessment about 3 weeks after treatment vs untreated controls; for pest or weed control at 20 g/ha: dosage 20 g/ha
Summary of the method: as §2

AMARE [15] = assay: Post-emergence herbicidal action against AMARE; assay type: in vivo, Amaranthus retroflexus; conditions: Amaranthus retroflexus, 504 h, visual assessment about 3 weeks after treatment, 100% = plants have died, 0% = like control plants
Summary of the method: as §2

AVEFA [16] = assay: Post-emergence herbicidal action against AVEFA; assay type: in vivo, Avena fatua; conditions: Avena fatua, 504 h, visual assessment about 3 weeks after treatment, 100% = plants have died, 0% = like control plants
Summary of the method: as §2

ECHCG [17] = assay: Post-emergence herbicidal action against ECHCG; assay type: in vivo, Echinochloa crus-galli; conditions: Echinochloa crus-galli, 504 h; for pest or weed control at 20 g/ha: dosage 20 g/ha
Summary of the method: as §2

HORMU [18] = assay: Post-emergence herbicidal action against HORMU; assay type: in vivo, Hordeum murinum; conditions: Hordeum murinum, 504 h; for pest or weed control at 20 g/ha: dosage 20 g/ha
Method: Seeds of monocotyledonous and dicotyledonous weed and crop plants are laid out in sandy loam soil in wood-fiber pots, covered with soil and cultivated in a greenhouse under good growth conditions. 2 to 3 weeks after sowing, the test plants are treated at the one-leaf stage. The compounds of the invention, formulated in the form of wettable powders (WP) or as emulsion concentrates (EC), are then sprayed onto the green parts of the plants in the form of an aqueous suspension or emulsion at a water application rate equivalent to 600 to 800 l/ha, with addition of 0.2% wetting agent. After the test plants have been left to stand in the greenhouse under optimal growth conditions for about 3 weeks, the action of the preparations is assessed visually in comparison to untreated controls (herbicidal action in percent (%): 100% activity=the plants have died, 0% activity=like control plants). […] The tables below illustrate, in an illustrative manner, the post-emergence herbicidal action of the compounds of the invention, the herbicidal activity being stated in percent.

MATIN [19] = assay: Post-emergence herbicidal action against MATIN; assay type: in vivo, Matricaria inodora; conditions: Tripleurospermum inodorum, 504 h; for pest or weed control at 20 g/ha: dosage 20 g/ha
Summary of the method: as §2

PHBPU [20] = assay: Post-emergence herbicidal action against PHBPU; assay type: in vivo, Pharbitis purpurea; conditions: Ipomoea purpurea, 504 h
Summary of the method: as §2

SETVI [21] = assay: Post-emergence herbicidal action against SETVI; assay type: in vivo, Setaria viridis; conditions: Setaria viridis, 504 h
Summary of the method: as §2

STEME [22] = assay: Post-emergence herbicidal action against STEME; assay type: in vivo, Stellaria media; conditions: Stellaria media, 504 h
Summary of the method: as §2

VIOTR [23] = assay: Post-emergence herbicidal action against VIOTR; assay type: in vivo, Viola tricolor; conditions: Viola tricolor, 504 h
Summary of the method: as §2

DIGSA [24] = assay: Post-emergence herbicidal action against DIGSA; assay type: in vivo, Digitaria sanguinalis; conditions: Digitaria sanguinalis, 504 h
Summary of the method: as §2

VERPE [25] = assay: Pre-emergence herbicidal action against VERPE; assay type: in vivo, Veronica persica; conditions: Veronica persica, 504 h, dosage 320 g/ha
Summary of the method: as §1

VERPE [26] = assay: Post-emergence herbicidal action against VERPE; assay type: in vivo, Veronica persica; conditions: Veronica persica, 504 h, 80 g/ha
Summary of the method: as §2

[27] = scored visually after 3 weeks vs untreated controls
[28] = 320 g/ha, scored visually after 3 weeks, 100% = plants have died, 0% = like control plants

CCn1nnnc1NC(=O)c1ccc(C(F)(F)F)c(C(=O)NC2CC2)c1Cl [Example 2-131]
80%: pest or weed control at 80 g/ha (HORMU [6]; 80 g/ha) | pest or weed control at 80 g/ha (PHBPU [8]) | pest or weed control at 20 g/ha (SETVI [9]; dosage 20 g/ha) | pest or weed control at 20 g/ha (ALOMY [14]) | pest or weed control at 5 g/ha (AVEFA [16]; 5 g/ha) | pest or weed control at 20 g/ha (AVEFA [16]; 20 g/ha) | pest or weed control at 20 g/ha (ECHCG [17]) | pest or weed control at 20 g/ha (PHBPU [20]; dosage 20 g/ha)
100%: pest or weed control at 80 g/ha (ABUTH [1]) | pest or weed control at 20 g/ha (ABUTH [1]; dosage 20 g/ha, scored visually after 3 weeks vs untreated controls, 100% = plants have died, 0% = like control plants, read-out: Pre-emergence action against ABUTH (herbicidal activity in percent)) | pest or weed control at 80 g/ha (ALOMY [2]; 80 g/ha, scored visually after 3 weeks vs untreated controls (100% = plants have died, 0% = like control plants)) | pest or weed control at 20 g/ha (AMARE [3]; 20 g/ha, scored visually after 3 weeks vs untreated controls) | pest or weed control at 80 g/ha (AMARE [3]; [27]) | pest or weed control at 80 g/ha (AVEFA [4]) | pest or weed control at 80 g/ha (ECHCG [5]) | pest or weed control at 80 g/ha (MATIN [7]) | pest or weed control at 80 g/ha (SETVI [9]) | pest or weed control at 20 g/ha (STEME [10]; dosage 20 g/ha) | pest or weed control at 80 g/ha (STEME [10]) | pest or weed control at 20 g/ha (VIOTR [11]; dosage 20 g/ha) | pest or weed control at 80 g/ha (VIOTR [11]) | pest or weed control at 80 g/ha (DIGSA [12]) | pest or weed control at 20 g/ha (AMARE [15]; 20 g/ha) | pest or weed control at 20 g/ha (HORMU [18]) | pest or weed control at 20 g/ha (MATIN [19]) | pest or weed control at 20 g/ha (SETVI [21]; dosage 20 g/ha) | pest or weed control at 5 g/ha (VIOTR [23]; 5 g/ha) | pest or weed control at 20 g/ha (VIOTR [23]; 20 g/ha)
90%: pest or weed control at 20 g/ha (ALOMY [2]; 20 g/ha, scored visually after 3 weeks, 100% = plants have died, 0% = like control plants) | pest or weed control at 20 g/ha (MATIN [7]; dosage 20 g/ha) | pest or weed control at 80 g/ha (POLCO) | pest or weed control at 20 g/ha (DIGSA [12]; dosage 20 g/ha) | pest or weed control at 20 g/ha (ABUTH [13]) | pest or weed control at 5 g/ha (MATIN [19]; dosage 5 g/ha) | pest or weed control at 5 g/ha (SETVI [21]; dosage 5 g/ha) | pest or weed control at 20 g/ha (STEME [22]) | pest or weed control at 5 g/ha (STEME [22]; dosage 5 g/ha) | pest or weed control at 5 g/ha (DIGSA [24]; 5 g/ha) | pest or weed control at 20 g/ha (DIGSA [24])

CCNC(=O)c1c(C(F)(F)F)ccc(C(=O)Nc2nnc(C)o2)c1Cl [Example 6-117]
80%: pest or weed control at 80 g/ha (VIOTR [11]) | pest or weed control at 20 g/ha (ABUTH [13]) | pest or weed control at 80 g/ha (ABUTH [13]; dosage 80 g/ha) | pest or weed control at 20 g/ha (ALOMY [14]) | pest or weed control at 80 g/ha (AMARE [15]; 80 g/ha) | pest or weed control at 20 g/ha (ECHCG [17]) | pest or weed control at 80 g/ha (ECHCG [17]; dosage 80 g/ha) | pest or weed control at 20 g/ha (HORMU [18]) | pest or weed control at 80 g/ha (PHBPU [20]; dosage 80 g/ha) | pest or weed control at 80 g/ha (VERPE [26]) | pest or weed control at 80 g/ha (VIOTR [23]; 80 g/ha) | pest or weed control at 20 g/ha (DIGSA [24])
100%: pest or weed control at 80 g/ha (ABUTH [1]) | pest or weed control at 320 g/ha (ABUTH [1]; Dosage: 320 g/ha, scored visually after 3 weeks, 100% = plants have died, 0% = like control plants) | pest or weed control at 80 g/ha (AMARE [3]; [27]) | pest or weed control at 320 g/ha (AMARE [3]; 320 g/ha, scored visually after 3 weeks) | pest or weed control at 80 g/ha (AVEFA [4]) | pest or weed control at 320 g/ha (AVEFA [4]; [28]) | pest or weed control at 320 g/ha (ECHCG [5]; 320 g/ha) | pest or weed control at 320 g/ha (HORMU [6]; 320 g/ha) | pest or weed control at 80 g/ha (MATIN [7]) | pest or weed control at 320 g/ha (MATIN [7]; dosage 320 g/ha) | pest or weed control at 80 g/ha (SETVI [9]) | pest or weed control at 320 g/ha (SETVI [9]; dosage 320 g/ha) | pest or weed control at 80 g/ha (STEME [10]) | pest or weed control at 320 g/ha (STEME [10]; dosage 320 g/ha) | pest or weed control at 320 g/ha (VIOTR [11]; dosage 320 g/ha) | pest or weed control at 80 g/ha (DIGSA [12]) | pest or weed control at 320 g/ha (DIGSA [12]; dosage 320 g/ha)
90%: pest or weed control at 320 g/ha (ALOMY [2]; [28]) | pest or weed control at 80 g/ha (ECHCG [5]) | pest or weed control at 320 g/ha (VERPE [25]) | pest or weed control at 80 g/ha (ALOMY [14]; dosage 80 g/ha) | pest or weed control at 80 g/ha (AVEFA [16]; 80 g/ha) | pest or weed control at 80 g/ha (HORMU [18]; dosage 80 g/ha) | pest or weed control at 20 g/ha (MATIN [19]) | pest or weed control at 80 g/ha (MATIN [19]; dosage 80 g/ha) | pest or weed control at 20 g/ha (STEME [22]) | pest or weed control at 80 g/ha (STEME [22]; 80 g/ha) | pest or weed control at 80 g/ha (DIGSA [24]; 80 g/ha)
